Reference: publication PMC7395068, “The evolution of strategies to minimise the risk of human drug-induced liver injury (DILI) in drug discovery and development” (Archives of Toxicology, 2020)
Read-outs that look alike come from different tables or passages of the source. One block for each compound: values may come before it.

Assays:
[1] = Phase 3 clinical trials; ref Aleo et al. 2019; cited from earlier work
[2] = system: THLE or HepG2 cells, isolated mitochondria, BSEP; conditions: cited from earlier work
PHH [3] = conditions: cited from earlier work
HepG2 [4] = conditions: cited from earlier work
[5] = cited from earlier work
HepG2 cells [6] = conditions: In vitro Assay; ref Tolosa 2012; cited from earlier work
HepG2 cells [7] = conditions: In vitro Assay; ref O'Brien 2006; cited from earlier work
[8] = system: isolated mouse liver mitochondria; conditions: In vitro Assay; ref Porceddu 2012; cited from earlier work
HepG2 [9] = system: HepG2; design: method as in Albrecht 2019; conditions: In vitro Assay; ref Albrecht 2019; cited from earlier work
rBsep = conditions: In vitro Assay; ref Dawson 2012; cited from earlier work
PHH spheroids = conditions: cited from earlier work
HepaRG cells = conditions: cited from earlier work
human hepatocytes = conditions: cited from earlier work
[10] = Plasma free fraction (fu) and unbound Cmax (Cmax,u); type: in vitro ADME, human; conditions: unbound plasma Cmax
hLiMTs [11] = conditions: cited from earlier work
[12] = in vivo; cited from earlier work
PHH [13] = conditions: cited from earlier work; remark: listed apart in the source
[14] = system: primary human hepatocytes, NIH3T3 fibroblasts, BSEP, CYP3A4; conditions: cited from earlier work
[15] = plasma free fraction; cited from earlier work
HepaRG spheroids = test: Combined HCI (HCS) and cellular ATP 3D assay in HepaRG spheroids; conditions: for AC50 / minimal effective concentration: Homo sapiens
hLiMTs [16] = test: Combined HCI (HCS) and cellular ATP 3D assay in hLiMTs; conditions: for AC50 / minimal effective concentration: Homo sapiens
[17] = read-out: Human plasma Cmax; total plasma Cmax.tot, median of 9 literature references; cited from earlier work
[18] = In vitro Assay, ref Albrecht 2019
[19] = In vitro Assay, ref Schadt 2015
[20] = Microtissue model structural based (HCI), combined HCS and ATP, MEC < 25 × Cmax.tot cut-off

Compound: Cc1cc(OCCCS(C)(=O)=O)cc(C)c1-c1cccc(COc2ccc3c(c2)OC[C@H]3CC(=O)O)c1 [TAK-875, reference compound]
clinical liver finding [1]: liver injury
Partition HRM hybrid scoring model classification ([2]; ref Aleo et al. 2019): DILI concern

Compound: OC[C@H]1OC(O)[C@H](O)[C@@H](O)[C@@H]1O (stereo partly shown) [glucose, reference compound]
Cytotoxicity PHH 48 hrs (PHH [3]; [18]): +VE
Cytotoxicity HepG2 48 hrs (HepG2 [4]; [18]): +VE

Compound: COC(=O)c1ccc(O)cc1 [methylparaben]
Cytotoxicity PHH 48 hrs (PHH [3]): -VE
In vivo DILI ([5]; in vivo): -VE
Cytotoxicity HepG2 48 hrs (HepG2 [4]): -VE

Compound: CO[C@H]1/C=C/O[C@@]2(C)Oc3c(C)c(O)c4c(O)c(c(/C=N/N5CCN(C)CC5)c(O)c4c3C2=O)NC(=O)/C(C)=C\C=C\[C@H](C)[C@H](O)[C@@H](C)[C@@H](O)[C@@H](C)[C@H](OC(C)=O)[C@@H]1C [rifampicin, reference compound]
Structural based (HCI) (HepG2 cells [6]): +VE
Cytotoxicity PHH 48 hrs (PHH [3]; [18]): +VE
In vivo DILI ([5]; ref Albrecht 2019): +VE
In vivo DILI ([5]; ref Dawson 2012): +VE
In vivo DILI ([5]; ref Gustafsson 2014): +VE
In vivo DILI ([5]; ref O'Brien 2006): +VE
In vivo DILI ([5]; ref Porceddu 2012): +VE
In vivo DILI ([5]; ref Schadt 2015): +VE
In vivo DILI ([5]; ref Tolosa 2012): +VE
Structural based (HCI) (HepG2 cells [7]): +VE
in vitro data EC2<=1x Cmax [8]: +VE
in vitro data EC20<=2uM [8]: -VE
Cytotoxicity HepG2 48 hrs (HepG2 [9]): +VE
Inhibition of rBsep cutoff<1& cmax u>.2 (rBsep): +VE
Inhibition of rBsep cutoff<3 (rBsep): +VE
DILI in vitro assay prediction, Vorrink (2018) (PHH spheroids; PHH spheroids, ATP, 14 days, IC20 < 20 × Cmax.tot, ref Vorrink et al. 2018): identified
DILI identification by high-throughput transcriptomics (HepaRG cells; HepaRG cells, BMCs in relation to 10 × human Cmax.tot, ref National Toxicology Program): identified

Compound: Oc1cc(Cl)ccc1Oc1ccc(Cl)cc1Cl [triclosan]
Cytotoxicity PHH 48 hrs (PHH [3]; [18]): -VE
In vivo DILI ([5]; ref Albrecht 2019): -VE
Cytotoxicity HepG2 48 hrs (HepG2 [4]; [18]): +VE

Human plasma Cmax,u [10]: 1.205 µM
HepaRG <25x Avg Cmax ATP (HepaRG spheroids; HepaRG, ATP endpoint, cut-off <25x Avg Cmax): +ve
HepaRG <100x Avg Cmaxu ATP (HepaRG spheroids; HepaRG, ATP endpoint, cut-off <100x Avg Cmaxu): +ve (<100x Avg Cmaxu)
HepaRG <25x Avg Cmax HCS (HepaRG spheroids; HepaRG, HCS endpoints, cut-off <25x Avg Cmax): +ve
HepaRG <100x Avg Cmaxu HCS (HepaRG spheroids; HepaRG, HCS endpoints, cut-off <100x Avg Cmaxu): +ve (<100x Avg Cmaxu)
HepaRG <25x Avg Cmax All (HepaRG spheroids; HepaRG, all endpoints (ATP and HCS), cut-off <25x Avg Cmax): +ve
HepaRG Cmax max All (HepaRG spheroids; HepaRG, all endpoints, Cmax max used): +ve
HepaRG Cmax min All (HepaRG spheroids; HepaRG, all endpoints, Cmax min used): +ve
HepaRG <10 uM All (HepaRG spheroids; HepaRG, all endpoints, cut-off <10 uM): +ve (<10 uM)
HepaRG <100x Avg Cmaxu All (HepaRG spheroids; HepaRG, all endpoints, cut-off <100x Avg Cmaxu): +ve (<100x Avg Cmaxu)
hLiMTs <25x Avg Cmax ATP (hLiMTs [16]; hLiMTs, ATP endpoint, cut-off <25x Avg Cmax): +ve
hLiMTs <100x Avg Cmaxu ATP (hLiMTs [16]; hLiMTs, ATP endpoint, cut-off <100x Avg Cmaxu): +ve (<100x Avg Cmaxu)
hLiMTs <25x Avg Cmax HCS (hLiMTs [16]; hLiMTs, HCS endpoints, cut-off <25x Avg Cmax): +ve
hLiMTs <100x Avg Cmaxu HCS (hLiMTs [16]; hLiMTs, HCS endpoints, cut-off <100x Avg Cmaxu): +ve (<100x Avg Cmaxu)
hLiMTs <25x Avg Cmax All (hLiMTs [16]; hLiMTs, all endpoints (ATP and HCS), cut-off <25x Avg Cmax): +ve
hLiMTs Cmax max All (hLiMTs [16]; hLiMTs, all endpoints, Cmax max used): +ve
hLiMTs Cmax min All (hLiMTs [16]; hLiMTs, all endpoints, Cmax min used): +ve
hLiMTs <10 uM All (hLiMTs [16]; hLiMTs, all endpoints, cut-off <10 uM): -ve
hLiMTs <100x Avg Cmaxu All (hLiMTs [16]; hLiMTs, all endpoints, cut-off <100x Avg Cmaxu): +ve (<100x Avg Cmaxu)
Compound: N[C@@H]1[C@H]2CN(c3nc4c(cc3F)c(=O)c(C(=O)O)cn4-c3ccc(F)cc3F)C[C@@H]12 [trovafloxacin]
Assigned DILI category ([5]; in vivo): 3
In vivo DILI ([5]; in vivo): +VE
Structural based (HCI) (human hepatocytes): +VE
hLiMTs ATP <100uM (hLiMTs [11]): -VE
hLiMTs/100uM, Proctor (2017) (hLiMTs [11]): -VE
DILI +VE (5-8), DILI -VE (-4) [12]: +VE
DILI severity category (Chen et al. [2016]) [12]: Most
PHH ATP <100uM (PHH [13]): -VE
PHH/100uM, Proctor (2017) (PHH [13]): -VE
DILI in vitro assay prediction, Schadt (2015) ([14]; BSEP & Metabolism based, ref Schadt et al. 2015): -VE
Cellular toxicity (3T3 cells) [14, 19]: -VE
Combined Assay [14, 19]: -VE
GSH adduct HML [14, 19]: -VE
Hepatocyte cellular toxicity [14, 19]: -VE
MitoTox 3T3 [14, 19]: -VE
TDI CYP3A4 [14, 19]: -VE
hBSEP inhibition [14, 19]: -VE
fu [15]: 0.240
Rule of Two hybrid HRM Score ≥3, Aleo (2019) [2]: +VE (key: +VE: Rule of Two hybrid HRM Score ≥3)
Rule of Two hybrid HRM Score ≥8, Aleo (2019) [2]: -VE
AC50 (HepaRG spheroids; HepaRG, read-out: ATP endpoint AC50): 12.9 µM
minimal effective concentration (HepaRG spheroids; HepaRG, read-out: ATP endpoint MEC): 7.27 µM
AC50 (HepaRG spheroids; HepaRG, read-out: HCS endpoint AC50): 24.9 µM
minimal effective concentration (HepaRG spheroids; HepaRG, read-out: HCS endpoint MEC): 17.5 µM
DILI prediction HepaRG spheroids (HCS-MEC) (HepaRG spheroids; [20]): +VE (MEC < 25 × Cmax.tot cut-off)
DILI in vitro assay prediction, Vorrink (2018) (PHH spheroids): identified
DILI identification by high-throughput transcriptomics (HepaRG cells): identified
AC50 (hLiMTs [16]; read-out: ATP endpoint AC50): 29.4 µM
minimal effective concentration (hLiMTs [16]; read-out: ATP endpoint MEC): 16.4 µM
AC50 (hLiMTs [16]; read-out: HCS endpoint AC50): 38.9 µM
minimal effective concentration (hLiMTs [16]; read-out: HCS endpoint MEC): 20.1 µM
DILI prediction hLiMTs (HCS-MEC) (hLiMTs [16]; [20]): +VE (MEC < 25 × Cmax.tot cut-off)
Cmax [17]: 5.02 µM
